The record followed here is article PMC4008261, “Rewiring of regenerated axons by combining treadmill training with semaphorin3A inhibition” (Molecular Brain, 2014).

The target of assay [1] is Semaphorin (Homo sapiens, UniProt Q14563). Nature of the assay: Pharmacological profile: semaphorin inhibition. The class given is cell-based. The text has this: In our previous study, we used an osmotic mini-pump to deliver the semaphorin3A inhibitor SM-216289 [20]. However, in clinical practice, this type of invasive drug delivery method is not ideal. Therefore, we developed a novel DDS that utilizes a silicone matrix to continuously deliver SM-345431 (a newly developed semaphorin3A inhibitor) intrathecally. We evaluated the drug release profile of SM-345431 in this new silicone matrix preparation and the potency of SM-345431-mediated semaphorin3A inhibition in vitro (Figure 1). […] When chick embryonic DRG explants and semaphorin3A-expressing COS7 cell aggregates (semaphorin3A-COS) were co-cultured in a collagen gel, the neurites of the DRG explants grew away from the semaphorin3A-COS, as shown in Figure 1B. […] We also evaluated the selectivity of SM-345431 for semaphorin3A inhibition by examining the pharmacological profile of SM-345431 (Tables 1 and 2). […] The release of SM-345431 (0.1 mg/mg loading 10%) in vivo was calculated as 0.5-0.7 μg/day, and this dose was similar to the dose of the semaphorin3A inhibitor (SM-216289) that we administered using osmotic mini pumps in our previous study. […]

The subject of assay [2] is Transcription response, NF-AT. Nature of the assay: Pharmacological profile: transcription response. It counts as cell-based. The text has this: (§1) Table 1 Pharmacological profile of SM-345431 (part 1) | column: IC50 (μm)
In assay [3] the test system is Transcription response, NF-kB. The experiment in a line: Pharmacological profile: transcription response. It counts as cell-based.
From the text: as §1

For assay [4], the system named is SCT adult rats. Nature of the assay: Remyelination after SCT (MBP/GAP43 immunostaining, electron microscopy). The class given is in vivo, rat. As to the method:
Rats were randomly divided into the following three experimental groups: 1) untrained + placebo, 2) untrained + SM-345431 and 3) trained + SM-345431. SCT was performed, and SM-345431 or placebo was administered at the lesion site via the newly developed DDS, which is described in detail below. Starting 1 week post-injury, treadmill training commenced with a BSS. Kinematic tests were performed monthly for 3 months after SCT using a rodent robotic device (Rodent robot 3000, Robomedica Inc.) that primarily assessed the performance of plantar stepping on a treadmill. Treadmill training was continued throughout the experimental period.
A total of 53 adult female Sprague-Dawley rats (200-250 g, 10-12 weeks old) were used in this study (3 rats died during the experimental period and were excluded from the statistical analysis). All procedures were approved by the experimental animal care committee of Keio University, School of Medicine and Murayama Medical Center (approval #12-8). All rats were anesthetized with an intraperitoneal injection of ketamine (100 mg/kg)/xylazine (10 mg/kg). The spinal cord at the level of the T10 lamina was exposed by T10 laminectomy, and the dorsal dura mater was opened. […] Kinematic data were recorded using similar procedures prior to re-transection surgery (on the same day) and on the day following re-transection surgery. […]

Sequence of Semaphorin (Q14563 21-771): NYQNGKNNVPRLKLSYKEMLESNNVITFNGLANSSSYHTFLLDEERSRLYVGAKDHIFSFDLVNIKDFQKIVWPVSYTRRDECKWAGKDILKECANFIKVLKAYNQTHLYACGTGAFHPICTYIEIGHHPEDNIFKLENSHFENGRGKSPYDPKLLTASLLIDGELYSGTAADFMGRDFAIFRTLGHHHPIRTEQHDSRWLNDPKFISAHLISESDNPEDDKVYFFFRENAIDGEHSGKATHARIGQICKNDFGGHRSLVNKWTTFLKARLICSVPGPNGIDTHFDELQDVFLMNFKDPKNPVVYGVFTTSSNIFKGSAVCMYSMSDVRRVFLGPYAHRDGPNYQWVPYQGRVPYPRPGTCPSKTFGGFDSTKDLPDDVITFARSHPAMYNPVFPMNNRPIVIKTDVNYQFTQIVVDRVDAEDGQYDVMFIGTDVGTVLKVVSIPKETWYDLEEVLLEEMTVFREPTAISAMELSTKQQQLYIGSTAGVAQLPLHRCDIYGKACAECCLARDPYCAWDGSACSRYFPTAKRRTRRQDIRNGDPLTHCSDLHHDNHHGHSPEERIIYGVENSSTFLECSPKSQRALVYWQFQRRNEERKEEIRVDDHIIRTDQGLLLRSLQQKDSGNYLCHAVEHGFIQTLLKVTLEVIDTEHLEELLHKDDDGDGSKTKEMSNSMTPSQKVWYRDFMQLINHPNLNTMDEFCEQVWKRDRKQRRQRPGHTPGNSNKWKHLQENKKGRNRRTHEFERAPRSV

As a reminder, the IC50 is the concentration needed to halve the response being measured. Regarding `CC(=O)c1cc2c(=O)c3c(C(=O)O)c(O)c(O)cc3oc2c(C(C)=O)c1-c1coc2cc(O)c(O)c(C(=O)O)c2c1=O` [SM-345431, Vinaxanthone], the results for the IC50 in assay [1], in assay [2] and in assay [3] were 0.1 to 0.2 µM, greater than 10 µM and greater than 10 µM, respectively. Besides, the “semaphorin3A inhibitory activity compared with SM-216289” value in assay [1] is recorded as “approximately the same semaphorin3A inhibitory activity as SM-216289”. The “remyelination of axons (myelinated GAP43-positive axons at the lesion site)” value is recorded as “significantly enhanced the remyelination of axons” in assay [4] (SM-345431 alone, 12 weeks post-injury) and “additional remyelination was not observed” in assay [4] (SM-345431 plus treadmill training, compared with SM-345431 alone).
